Assay results taken from publication PMC6220303 (EMBO Molecular Medicine, 2018).
Like-named read-outs stand apart in the source and are kept apart here.

Tests used:
dogs = assay: Cardiovascular safety pharmacology in dogs; format: in vivo, dog
Aβ40 in rat brain tissue = assay: Aβ40 in rat brain and CSF after single oral dose; format: in vivo
Experimental: Therefore, we measured Aβ40 in rat brain tissue 4 h after oral administration over a range of doses. […] In addition, the effect‐over‐time curves for brain and CSF almost completely superimposed, showing that Aβ pharmacodynamics in CSF mirrors very well that in brain tissue.
Experiments were carried out in accordance with the guidelines of the Swiss Federal and Cantonal veterinary offices for care and use of laboratory animals or the Canadian Council on Animal Care (Ottawa, Canada), and the ARRIVE guidelines. Studies described in this report were approved by the Swiss Cantonal Veterinary Authority of Basel City, Switzerland, and performed according to animal license numbers BS‐2063, BS‐2077, and BS‐1094. Methods employed in PK/PD studies in rats and dogs are described (Neumann et al, 2015).
Electrochemiluminescence immunoassays (Mesoscale Diagnostics, Rockville, MD, USA) were used to determine Aβ38, Aβ40, Aβ42, sAPPα, and sAPPβ. For studies in normal mice and rats, the endogenous Aβ40 was extracted from the brain homogenate with 1% Triton X‐100, and the 4G8‐based assay kit was used for quantification according to the manufacturer's instructions. CSF was collected from the cisterna magna and also analyzed using the 4G8 kit. For studies in dogs, CSF was collected via a ventricular port, and the 6E10‐based Mesoscale Diagnostics kit for Aβ was used. For studies in APP23 mice, Aβ40 and Aβ42 were determined after extraction with 70% formic acid and subsequent neutralization.

clinical = format: in vivo, human; conditions: for Mean concentration: AUC divided by 24 hours; for concentration at 3 months: read-out: steady-state plasma level
Experimental: The lower limit of quantification (LLOQ) was 1 ng/ml in plasma and 2 ng/ml in urine and CSF, except for the 3‐month study where the method for CSF was more sensitive (LLOQ 0.1 ng/ml). Plasma PK parameters were calculated using actual recorded sampling times and non‐compartmental methods with Phoenix WinNonlin version 6.4 (Certara, Inc., Princeton, NJ, USA).
For further details, see the Appendix Table S10 in Appendix and the accompanying clinical protocols synopsis (Appendix Table S11).

Lipoxygenase 5-LO = Lipoxygenase 5-LO (Homo sapiens, UniProt P09917); assay: Receptor panel; format: biochemical; conditions: read-out: Inhibition at 10 µM
Experimental: Cellular Aβ release assays were done in CHO cells stably transfected with human wild‐type and human APP were done as described (Neumann et al, 2015). Determinations of logD, pKa, and binding to brain homogenates were done internally at Novartis, Basel. Plasma protein binding was determined by equilibrium dialysis using diluted plasma from the corresponding species. MDR‐1‐MDCK cells were obtained from Prof. A. Berns, Netherlands Cancer Institute, Amsterdam NL, and bi‐directional transport measurements were done as described (Rueeger et al, 2011). Receptor binding assays were done against an internal receptor panel and externally at Ricerca Biosciences, Peitou, Taiwan. In vitro binding and cellular patch clamp assays for hERG were done at Preclinical Safety, Novartis, Basel.

[1] = single dose 1250 mg, adults (2), individual data points

Lipoxygenase 5-LO, sequence (P09917 whole entry): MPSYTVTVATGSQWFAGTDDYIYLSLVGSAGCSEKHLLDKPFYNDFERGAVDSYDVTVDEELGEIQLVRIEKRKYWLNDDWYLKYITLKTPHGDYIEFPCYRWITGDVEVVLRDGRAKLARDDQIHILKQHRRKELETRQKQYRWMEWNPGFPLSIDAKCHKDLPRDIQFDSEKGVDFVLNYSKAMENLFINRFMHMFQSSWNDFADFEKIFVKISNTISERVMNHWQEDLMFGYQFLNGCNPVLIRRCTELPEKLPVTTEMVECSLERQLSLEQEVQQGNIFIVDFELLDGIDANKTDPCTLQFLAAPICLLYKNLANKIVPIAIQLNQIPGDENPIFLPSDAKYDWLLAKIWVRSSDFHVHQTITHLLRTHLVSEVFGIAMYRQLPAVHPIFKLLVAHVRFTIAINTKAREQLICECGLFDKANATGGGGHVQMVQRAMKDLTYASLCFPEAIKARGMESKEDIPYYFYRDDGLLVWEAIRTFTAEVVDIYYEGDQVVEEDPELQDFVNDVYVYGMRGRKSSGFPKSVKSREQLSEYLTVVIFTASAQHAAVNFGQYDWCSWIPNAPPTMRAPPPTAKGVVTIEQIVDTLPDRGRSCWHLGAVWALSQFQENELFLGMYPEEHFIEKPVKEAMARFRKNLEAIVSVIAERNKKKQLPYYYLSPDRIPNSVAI

C[C@@]1(c2nc(NC(=O)c3ncc(C(F)(F)F)cc3Cl)ccc2F)CO[C@@](C)(C(F)(F)F)C(N)=N1 [CNP520]
free plasma C max (dogs; 200 mg/kg): 230 nM
effect on heart rate, ECG morphology, blood pressure (dogs; doses up to 200 mg/kg, and repeat dose toxicology studies (2, 4, 13, 39 weeks)): no effect on heart rate, ECG morphology, or blood pressure
Aβ40 reduction in rat brain and CSF (Aβ40 in rat brain tissue; 24 h after single oral 30 μmol/kg (15.4 mg/kg) dose): ~ 50%
ED50 (Aβ40 in rat brain tissue; Rattus norvegicus, read-out: ED50, oral dose required for 50% lowering of rat brain Aβ40, 4 h after oral administration): 2.4 ± 0.31 mg/kg
reduction of Aβ40 in rat brain tissue compared to untreated controls (Aβ40 in rat brain tissue; highest dose, 4 h after oral administration, mean ± SD): 89.3 ± 4.5%
Mean concentration (clinical; 2 mg, 3 months, Day 91): 25.6 nM
Mean concentration (clinical; 10 mg, 3 months, Day 91): 123 nM
Mean concentration (clinical; 10 mg, 14 days, Day 14): 114 nM
Mean concentration (clinical; 30 mg, 14 days, Day 14): 292 nM
Mean concentration (clinical; 35 mg, 3 months, Day 91): 371 nM
Mean concentration (clinical; 85 mg, 3 months, Day 91): 910 nM
Mean concentration (clinical; 90 mg, 14 days, Day 14): 762 nM
Mean concentration (clinical; 300 mg, 14 days, Day 14): 2312 nM
Tmax (clinical; both sexes, human, plasma, oral, 30 mg, 14 days, Day 14, median (min–max)): 3 h
Cmax (clinical; both sexes, human, plasma, oral, 30 mg, 14 days, Day 14, ≥ 60 years, mean (CV%)): 211 ng/mL
AUC(0-t) (clinical; both sexes, human, plasma, oral, 30 mg, AUC 0–24h, 30 mg, 14 days, Day 14, mean (CV%)): 3580 ng·h/mL
half-life (clinical; both sexes, human, plasma, oral, participants ≥ 60 years of age, single dose, read-out: mean terminal T 1/2): 81.4 to 109 h
concentration at 3 months (clinical; both sexes, human, plasma, oral, 2-mg dose daily, participants ≥ 60 years): 11.9 ng/mL
concentration at 3 months (clinical; both sexes, human, plasma, oral, 2-mg dose daily): 23 nM
concentration at 3 months (clinical; both sexes, human, plasma, oral, 85-mg dose daily, participants ≥ 60 years): 425 ng/mL
concentration at 3 months (clinical; both sexes, human, plasma, oral, 85-mg dose daily): 828 nM
free C max (clinical; human plasma, 85 mg, 3-month study): 48 nM
Tmax (clinical; human, plasma, oral, 2 mg, 3 months, Day 91, median (min–max)): 2.5 h
Cmax (clinical; human, plasma, oral, 2 mg, 3 months, Day 91, ≥ 60 years, mean (CV%)): 16.6 ng/mL
AUC(0-t) (clinical; human, plasma, oral, 2 mg, AUC 0–24h, 2 mg, 3 months, Day 91, mean (CV%)): 313 ng·h/mL
Tmax (clinical; human, plasma, oral, 10 mg, 3 months, Day 91, median (min–max)): 2.5 h
Cmax (clinical; human, plasma, oral, 10 mg, 3 months, Day 91, ≥ 60 years, mean (CV%)): 81 ng/mL
Tmax (clinical; human, plasma, oral, 10 mg, 14 days, Day 14, median (min–max)): 2.53 h
Cmax (clinical; human, plasma, oral, 10 mg, 14 days, Day 14, ≥ 60 years, mean (CV%)): 84.3 ng/mL
AUC(0-t) (clinical; human, plasma, oral, 10 mg, AUC 0–24h, 10 mg, 3 months, Day 91, mean (CV%)): 1500 ng·h/mL
AUC(0-t) (clinical; human, plasma, oral, 10 mg, AUC 0–24h, 10 mg, 14 days, Day 14, mean (CV%)): 1400 ng·h/mL
Cmax (clinical; human, plasma, oral, 10 mg, single dose 10 mg, adults (6), mean (%CV), read-out: Cmax): 20.9 ng/mL
Tmax (clinical; human, plasma, oral, 10 mg, single dose 10 mg, adults (6), median (min–max), read-out: Tmax): 4 h
AUC(0-inf) (clinical; human, plasma, oral, 10 mg, single dose 10 mg, adults (n = 5), mean (%CV)): 948 ng·h/mL
half-life (clinical; human, plasma, oral, 10 mg, single dose 10 mg, adults (n = 5), mean (%CV), read-out: T1/2 (converted)): 61.3 h
Cmax (clinical; human, plasma, oral, 10 mg, single dose 10 mg, adults ≥ 60 years (6), mean (%CV), read-out: Cmax): 16 ng/mL
Tmax (clinical; human, plasma, oral, 10 mg, single dose 10 mg, adults ≥ 60 years (6), median (min–max), read-out: Tmax): 4.02 h
AUC(0-inf) (clinical; human, plasma, oral, 30 mg, single dose 30 mg, adults (12), mean (%CV)): 3070 ng·h/mL
Cmax (clinical; human, plasma, oral, 30 mg, single dose 30 mg, adults (12), mean (%CV), read-out: Cmax): 65.7 ng/mL
half-life (clinical; human, plasma, oral, 30 mg, single dose 30 mg, adults (12), mean (%CV), read-out: T1/2 (converted)): 64.3 h
Tmax (clinical; human, plasma, oral, 30 mg, single dose 30 mg, adults (12), median (min–max), read-out: Tmax): 3.5 h
Tmax (clinical; human, plasma, oral, 35 mg, 3 months, Day 91, median (min–max)): 2.5 h
Cmax (clinical; human, plasma, oral, 35 mg, 3 months, Day 91, ≥ 60 years, mean (CV%)): 237 ng/mL
AUC(0-t) (clinical; human, plasma, oral, 35 mg, AUC 0–24h, 35 mg, 3 months, Day 91, mean (CV%)): 4450 ng·h/mL
AUC(0-t) (clinical; human, plasma, oral, 75 mg, AUC 0–72h, food effect, 75 mg Fasted (10), adults, mean (%CV)): 4450 ng·h/mL
AUC(0-t) (clinical; human, plasma, oral, 75 mg, AUC 0–72h, food effect, 75 mg Fed (10), adults, mean (%CV)): 4870 ng·h/mL
Cmax (clinical; human, plasma, oral, 75 mg, food effect, 75 mg Fasted (10), adults, mean (%CV), read-out: Cmax): 164 ng/mL
Tmax (clinical; human, plasma, oral, 75 mg, food effect, 75 mg Fasted (10), adults, median (min–max), read-out: Tmax): 3.5 h
Cmax (clinical; human, plasma, oral, 75 mg, food effect, 75 mg Fed (10), adults, mean (%CV), read-out: Cmax): 179 ng/mL
Tmax (clinical; human, plasma, oral, 75 mg, food effect, 75 mg Fed (10), adults, median (min–max), read-out: Tmax): 4.04 h
Tmax (clinical; human, plasma, oral, 85 mg, 3 months, Day 91, median (min–max)): 2.5 h
Cmax (clinical; human, plasma, oral, 85 mg, 3 months, Day 91, ≥ 60 years, mean (CV%)): 602 ng/mL
AUC(0-t) (clinical; human, plasma, oral, 85 mg, AUC 0–24h, 85 mg, 3 months, Day 91, mean (CV%)): 11200 ng·h/mL
Tmax (clinical; human, plasma, oral, 90 mg, 14 days, Day 14, median (min–max)): 3 h
Cmax (clinical; human, plasma, oral, 90 mg, 14 days, Day 14, ≥ 60 years, mean (CV%)): 581 ng/mL
AUC(0-t) (clinical; human, plasma, oral, 90 mg, AUC 0–24h, 90 mg, 14 days, Day 14, mean (CV%)): 9380 ng·h/mL
AUC(0-inf) (clinical; human, plasma, oral, 90 mg, single dose 90 mg, adults (6), mean (%CV)): 7190 ng·h/mL
Cmax (clinical; human, plasma, oral, 90 mg, single dose 90 mg, adults (6), mean (%CV), read-out: Cmax): 138 ng/mL
half-life (clinical; human, plasma, oral, 90 mg, single dose 90 mg, adults (6), mean (%CV), read-out: T1/2 (converted)): 66.2 h
Tmax (clinical; human, plasma, oral, 90 mg, single dose 90 mg, adults (6), median (min–max), read-out: Tmax): 3.5 h
Cmax (clinical; human, plasma, oral, 90 mg, single dose 90 mg, adults ≥ 60 years (6), mean (%CV), read-out: Cmax): 172 ng/mL
Tmax (clinical; human, plasma, oral, 90 mg, single dose 90 mg, adults ≥ 60 years (6), median (min–max), read-out: Tmax): 2.02 h
Tmax (clinical; human, plasma, oral, 300 mg, 14 days, Day 14, median (min–max)): 2.51 h
Cmax (clinical; human, plasma, oral, 300 mg, 14 days, Day 14, ≥ 60 years, mean (CV% 25.1)): 1710 ng/mL
AUC(0-t) (clinical; human, plasma, oral, 300 mg, AUC 0–24h, 300 mg, 14 days, Day 14, mean (CV%)): 28300 ng·h/mL
AUC(0-inf) (clinical; human, plasma, oral, 300 mg, single dose 300 mg, adults (6), mean (%CV)): 23500 ng·h/mL
Cmax (clinical; human, plasma, oral, 300 mg, single dose 300 mg, adults (6), mean (%CV), read-out: Cmax): 498 ng/mL
half-life (clinical; human, plasma, oral, 300 mg, single dose 300 mg, adults (6), mean (%CV), read-out: T1/2 (converted)): 57.9 h
Tmax (clinical; human, plasma, oral, 300 mg, single dose 300 mg, adults (6), median (min–max), read-out: Tmax): 6 h
Cmax (clinical; human, plasma, oral, 300 mg, single dose 300 mg, adults ≥ 60 years (18), mean (%CV), read-out: Cmax): 440 ng/mL
Tmax (clinical; human, plasma, oral, 300 mg, single dose 300 mg, adults ≥ 60 years (18), median (min–max), read-out: Tmax): 5.04 h
AUC(0-inf) (clinical; human, plasma, oral, 750 mg, single dose 750 mg, adults (6), mean (%CV)): 90100 ng·h/mL
Cmax (clinical; human, plasma, oral, 750 mg, single dose 750 mg, adults (6), mean (%CV), read-out: Cmax): 1150 ng/mL
half-life (clinical; human, plasma, oral, 750 mg, single dose 750 mg, adults (6), mean (%CV), read-out: T1/2 (converted)): 83.8 h
Tmax (clinical; human, plasma, oral, 750 mg, single dose 750 mg, adults (6), median (min–max), read-out: Tmax): 2.5 h
Cmax (clinical; human, plasma, oral, 750 mg, single dose 750 mg, adults ≥ 60 years (20), mean (%CV), read-out: Cmax): 1120 ng/mL
Tmax (clinical; human, plasma, oral, 750 mg, single dose 750 mg, adults ≥ 60 years (20), median (min–max), read-out: Tmax): 3 h
AUC(0-inf) (clinical; human, plasma, oral, 1250 mg, single dose 1250 mg, adults (2), individual data points): 168000 ng·h/mL
Cmax (clinical; human, plasma, oral, 1250 mg, single dose 1250 mg, adults (2), individual data points, read-out: Cmax): 2850 ng/mL
half-life (clinical; human, plasma, oral, 1250 mg, single dose 1250 mg, adults (2), individual data points, read-out: T1/2 (converted)): 76.4 h
Tmax (clinical; human, plasma, oral, 1250 mg, single dose 1250 mg, adults (2), individual data points, read-out: Tmax): 4 h
Tmax (clinical; human, plasma, oral, after dose, human pharmacokinetic studies, read-out: T max): 1 to 8 h
half-life (clinical; human, plasma, oral, healthy adult participants, single dose, read-out: mean terminal T 1/2): 61.3 to 83.8 h
AUCinf (clinical; [1]): 184000 ng·h/mL
Cmax (clinical; [1]): 2890 ng/mL
T1/2 (clinical; [1]): 86.1 h
Tmax (clinical; [1]): 8.00 h
unbound concentration of CNP520 in plasma (clinical; typically, at pharmacologically active doses in animals and humans): below 0.1 μM
inhibition at 10 µM (Lipoxygenase 5-LO): 66%
